Results on 8 compounds are retold here after patent publication US20120135995A1, “FUNGICIDAL DIPHENYL-SUBSTITUTED PYRIDAZINES” (E.I. Dupont de Nemours and Company, priority 2009, published 2012).

Holding throughout (format): in vivo
For one experiment, the system named is Botrytis cinerea. The experiment is described as follows: Test A: tomato seedlings sprayed, next day inoculated with Botrytis cinerea (tomato Botrytis), visual disease rating. The settings on record: sprayed day before inoculation; for Test A rating (disease control) / pest or weed control at 200 ppm: 200 ppm test suspension; for pest or weed control at 200 ppm / pest or weed control at 40 ppm: Botrytis cinerea; for pest or weed control at 40 ppm: 40 ppm test suspension (*). From the text: (§1) General protocol for preparing test suspensions for Tests A-F: the test compounds were first dissolved in acetone in an amount equal to 3% of the final volume and then suspended at the desired concentration (in ppm) in acetone and purified water (50/50 mix) containing 250 ppm of the surfactant Trem® 014 (polyhydric alcohol esters). The resulting test suspensions were then used in Tests A-F. Spraying a 200 ppm test suspension to the point of run-off on the test plants was the equivalent of a rate of 500 g/ha. An asterisk “*” next to the rating value indicates a 40 ppm test suspension.
The test suspension was sprayed to the point of run-off on tomato seedlings. The following day the seedlings were inoculated with a spore suspension of Botrytis cinerea (the causal agent of tomato Botrytis) and incubated in saturated atmosphere at 20° C. for 48 h, and then moved to a growth chamber at 24° C. for 3 days, after which time visual disease ratings were made.
(§2) Results for Tests A-F are given in Table A. In the Table, a rating of 100 indicates 100% disease control and a rating of 0 indicates no disease control (relative to the controls). A dash (-) indicates no test results. All results are for 200 ppm except where followed by “*”, which indicates 40 ppm.

For the next experiment, the system named is Alternaria solani. As to the kind of experiment: Test B: tomato seedlings sprayed, next day inoculated with Alternaria solani (tomato early blight), visual disease rating. The settings on record: sprayed day before inoculation; for Test B rating (disease control) / pest or weed control at 200 ppm: 200 ppm test suspension; for pest or weed control at 200 ppm / pest or weed control at 40 ppm: Alternaria solani; for pest or weed control at 40 ppm: 40 ppm test suspension (*).
From the text: as §1
The test suspension was sprayed to the point of run-off on tomato seedlings. The following day the seedlings were inoculated with a spore suspension of Alternaria solani (the causal agent of tomato early blight) and incubated in a saturated atmosphere at 27° C. for 48 h, and then moved to a growth chamber at 20° C. for 5 days, after which time visual disease ratings were made.
as §2

Another experiment deals with Septoria nodorum. As to the kind of experiment: Test C: wheat seedlings sprayed, next day inoculated with Septoria nodorum (wheat glume blotch), visual disease rating. To be noted: sprayed day before inoculation; for Test C rating (disease control) / pest or weed control at 200 ppm: 200 ppm test suspension; for pest or weed control at 200 ppm / pest or weed control at 40 ppm: Parastagonospora nodorum; for pest or weed control at 40 ppm: 40 ppm test suspension (*).
From the text: as §1
The test suspension was sprayed to the point of run-off on wheat seedlings. The following day the seedlings were inoculated with a spore suspension of Septoria nodorum (the causal agent of wheat glume blotch) and incubated in a saturated atmosphere at 24° C. for 48 h, and then moved to a growth chamber at 20° C. for 6 days, after which time visual disease ratings were made.
as §2

Another experiment concerns Septoria tritici. The experiment is described as follows: Test D: wheat seedlings sprayed, next day inoculated with Septoria tritici (wheat leaf blotch), visual disease rating. To be noted: sprayed day before inoculation; for Test D rating (disease control) / pest or weed control at 200 ppm: 200 ppm test suspension; for pest or weed control at 200 ppm / pest or weed control at 40 ppm: Zymoseptoria tritici; for pest or weed control at 40 ppm: 40 ppm test suspension (*).
From the text: as §1
The test suspension was sprayed to the point of run-off on wheat seedlings. The following day the seedlings were inoculated with a spore suspension of Septoria tritici (the causal agent of wheat leaf blotch) and incubated in saturated atmosphere at 24° C. for 48 h, and then moved to a growth chamber at 20° C. for 19 days, after which time visual disease ratings were made.
as §2

In experiment [1] the test system is Puccinia recondita f. sp. tritici. As to the kind of experiment: Test E2: wheat seedlings sprayed, next day inoculated with Puccinia recondita f. sp. tritici (wheat leaf rust), visual disease rating. To be noted: sprayed day before inoculation; for Test E2 rating (disease control) / pest or weed control at 200 ppm: 200 ppm test suspension; for pest or weed control at 200 ppm / pest or weed control at 40 ppm: Puccinia recondita; for pest or weed control at 40 ppm: 40 ppm test suspension (*).
From the text: as §1
The test suspension was sprayed to the point of run-off on wheat seedlings. The following day the seedlings were inoculated with a spore suspension of Puccinia recondita f. sp. tritici (the causal agent of wheat leaf rust) and incubated in a saturated atmosphere at 20° C. for 24 h, and then moved to a growth chamber at 20° C. for 7 days, after which time visual disease ratings were made.
as §2

A further experiment deals with Erysiphe graminis. The experiment is described as follows: Test F: wheat seedlings sprayed, next day inoculated with Erysiphe graminis (wheat powdery mildew), visual disease rating. The settings on record: sprayed day before inoculation; for Test F rating (disease control) / pest or weed control at 200 ppm: 200 ppm test suspension; for pest or weed control at 200 ppm / pest or weed control at 40 ppm: Blumeria graminis; for pest or weed control at 40 ppm: 40 ppm test suspension (*).
From the text: as §1
The test suspension was sprayed to the point of run-off on wheat seedlings. The following day the seedlings were inoculated with a spore dust of Erysiphe graminis, (the causal agent of wheat powdery mildew) and incubated in a growth chamber at 20° C. for 8 days, after which time visual disease ratings were made.
as §2

A word on the pest or weed control: it is the degree to which the test organism was suppressed or injured, in per cent. The low end stands for a weak effect, the high end for a strong effect.

As for `COc1cc(OC)cc(-c2c(Cl)nnc(C)c2-c2ccc(Cl)cc2)c1` [Compound 1], the “Test A rating (disease control)” value in the experiment on Botrytis cinerea was 0%. In the experiment with Alternaria solani, the “Test B rating (disease control)” value turned out to be 0%. In addition, the “Test C rating (disease control)” value with Septoria nodorum came to 0%. The “Test D rating (disease control)” value in the experiment with Septoria tritici is on record as 0%. In addition, the “Test E2 rating (disease control)” value in experiment [1] worked out at 0%. In addition, the “Test F rating (disease control)” value in the experiment with Erysiphe graminis was determined as 0%.

Consider `COc1ccc(-c2c(C)nnc(Cl)c2-c2cc(OC)cc(OC)c2)cc1` [Compound 2], for which the “Test A rating (disease control)” value in the experiment on Botrytis cinerea is 95%. In the experiment with Alternaria solani, the “Test B rating (disease control)” value is 58%. Besides, the “Test C rating (disease control)” value with Septoria nodorum is 0%. The “Test D rating (disease control)” value in the experiment with Septoria tritici came out at 62%. Further, the “Test E2 rating (disease control)” value in experiment [1] is recorded as 74%. For the same compound, the “Test F rating (disease control)” value in the experiment with Erysiphe graminis is on record as 26%.

For the compound `COc1cc(OC)cc(-c2c(Cl)nnc(C)c2-c2ccc(F)cc2F)c1` [Compound 3], the “Test A rating (disease control)” value with Botrytis cinerea was 91%. Moreover, the “Test B rating (disease control)” value in the experiment on Alternaria solani amounted to 31%. Also, the “Test C rating (disease control)” value with Septoria nodorum was determined as 0%. The “Test D rating (disease control)” value with Septoria tritici was 97%. Also, in experiment [1], the “Test E2 rating (disease control)” value was 97%. The “Test F rating (disease control)” value in the experiment with Erysiphe graminis was 79%.

For `COc1cc(OC)cc(-c2c(Cl)nnc(C)c2-c2c(F)cccc2F)c1` [Compound 4, 3-chloro-4-(3,5-dimethoxyphenyl)-6-methyl-5-(2,6-difluorophenyl)pyridazine], the pest or weed control at 200 ppm with Botrytis cinerea was 95%; with Alternaria solani, 97%; with Septoria nodorum it was 0%; in the experiment with Septoria tritici, 98%; in experiment [1], 100%; with Erysiphe graminis, 95%.

As for `COc1cc(OC)cc(-c2cnnc(C)c2-c2c(F)cc(F)cc2F)c1` [Compound 6, 5-(3,5-dimethoxyphenyl)-3-methyl-4-(2,4,6-trifluorophenyl)pyridazine], the pest or weed control at 200 ppm in the experiment with Botrytis cinerea stood at 97%; with Alternaria solani it was 100%; in the experiment with Septoria nodorum it was 96%; in the experiment on Septoria tritici, 93%; in experiment [1], 100%; in the experiment on Erysiphe graminis it was 100%.

In the case of `COc1cc(OC)cc(-c2cnnc(CCl)c2-c2c(F)cc(F)cc2F)c1` [Compound 7, 3-(chloromethyl)-5-(3,5-dimethoxyphenyl)-4-(2,4,6-trifluorophenyl)-pyridazine], the pest or weed control at 200 ppm in the experiment on Botrytis cinerea was determined as 91%; in the experiment with Alternaria solani, 26%; with Septoria nodorum, 94%; in the experiment with Septoria tritici, 96%; in experiment [1] it was 98%; in the experiment with Erysiphe graminis, 99%.

Regarding `COc1cc(OC)cc(-c2c(C)nnc(Cl)c2-c2c(F)cc(F)cc2F)c1` [Compound 8, 3-chloro-5-(3,5-dimethoxyphenyl)-6-methyl-4-(2,4,6-trifluorophenyl)-pyridazine], the pest or weed control at 40 ppm with Botrytis cinerea was 100%; with Alternaria solani, 100%; in the experiment with Septoria nodorum, 100%; in the experiment on Septoria tritici it was 99%; in experiment [1] it was 100%; in the experiment with Erysiphe graminis, 99%.

For `COc1cc(OC)cc(-c2c(C)nnc(C)c2-c2c(F)cc(F)cc2F)c1` [Compound 9, 4-(3,5-dimethoxyphenyl)-3,6-dimethyl-5-(2,4,6-trifluorophenyl)pyridazine], the pest or weed control at 40 ppm was found to be 100% in the experiment on Botrytis cinerea; 99% in the experiment on Alternaria solani; 100% with Septoria nodorum; 100% in the experiment with Septoria tritici; 100% in experiment [1]; 100% with Erysiphe graminis.
